Experimental data from patent publication US9918975B2, “Method for improving dissolution of anticoagulant agent” (Daiichi Sankyo Company, Limited, priority 2010, dated 2018).

Assay: Solubility of compound I in aqueous solutions
Assay type: physicochemical

CN1CCc2nc(C(=O)N[C@@H]3C[C@@H](C(=O)N(C)C)CC[C@@H]3NC(=O)C(=O)Nc3ccc(Cl)cn3)sc2C1 [compound I, N^1-(5-chloropyridin-2-yl)-N^2-((1S,2R,4S)-4-[(dimethylamino)carbonyl]-2-{[(5-methyl-4,5,6,7-tetrahydrothiazolo[5,4-c]pyridin-2-yl)carbonyl]amino}cyclohexyl)ethanediamide]
solubility (neutral aqueous solutions (e.g., a neutral buffer)): reduced solubility | solubility (strongly acidic aqueous solutions): favorable solubility
